Measured values published in patent US11707474B2, “Methods for treating acute myeloid leukemia and related conditions” (GlycoMimetics, Inc., priority 2018, dated 2023).
Values joined by “and” are separate entries in the source; they are usually repeats but may differ in a detail not shown here. Equal values may be shown once. Read-outs that look alike come from different tables or passages of the source.

Experiments:
U937 = assay: Systemic U-937 AML mouse survival model; type: in vivo, NOD/SCID mouse
Description: A compound of Formula (I) in combination with cytarabine/DNR chemotherapy was evaluated in the systemic U-937 AML NOD/SCID mouse survival model.
The U937 cell line was chosen because the cells express the E-selectin ligand and react with antibody HECA-452. After engraftment, mice were randomized into 4 groups (n=10/group) and treatment was initiated. The groups included a saline control group; a group administered the compound of Formula (I) at 40 mg/kg BID (i.e., 80 mg/kg per day) for 9 days, a group administered cytarabine at 300 mg/kg QD (i.e., 300 mg/kg per day) for 3 days and a single dose of DNR at 3 mg/kg; and a group administered the combined regimen of the compound of Formula (I) and chemotherapy (cytarabine and DNR).

[1] = 5-FU induced mucositis assay; type: in vivo, Mice (C57bl/6); settings: 20 mg/kg IP BID 4 days after second 5-FU injection
Description: Mice (C57bl/6) were treated with 150 mg/kg of 5-fluorouracil (5-FU) intraperitoneal (IP) on days 0 and 10. After the second injection of 5-FU, the mice were treated with a compound of Formula (I) (20 mg/kg in saline, IP, BID (i.e. 40 mg/kg per day)) or saline alone (0.15 M NaCl) for 4 days. Mice were then sacrificed and the small intestines were removed and weighed to determine the degree of inflammation. […] FIG. 1B illustrates that intestinal erosion, villous loss, and macrophage infiltration after administration of chemotherapy were ameliorated by concurrent administration of a compound of Formula (I).

E-selectin = target: T1, E-selectin (Homo sapiens, UniProt P16581); assay: E-selectin competitive binding assay (sLe^a polyacrylamide conjugate)
T1 construct: fused on or other part: Ig (immunoglobulin Fc) part fused on as a handle for immobilisation
T1 sequence (P16581 22-175 limits assumed): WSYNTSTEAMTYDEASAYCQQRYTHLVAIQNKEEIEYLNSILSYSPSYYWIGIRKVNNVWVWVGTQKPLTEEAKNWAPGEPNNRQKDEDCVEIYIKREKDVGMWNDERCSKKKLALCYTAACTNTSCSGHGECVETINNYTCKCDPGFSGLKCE
Description: The inhibition assay to screen for and characterize glycomimetic antagonists of E-selectin is a competitive binding assay, which allows the determination of IC50 and IC90 values. An E-selectin/Ig chimera was immobilized in 96 well microtiter plates by incubation at 37° C. for 2 hours. To reduce nonspecific binding, bovine serum albumin was added to each well and incubated at room temperature for 2 hours. The plate was washed and serial dilutions of the test compounds were added to the wells in the presence of conjugates of biotinylated, sLe^a polyacrylamide with streptavidin/horseradish peroxidase and incubated for 2 hours at room temperature.
To determine the amount of sLe^a bound to immobilized E-selectin after washing, the peroxidase substrate, 3, 3′, 5, 5′ tetramethylbenzidine (TMB) was added. After 3 minutes, the enzyme reaction was stopped by the addition of H3PO4, and the absorbance of light at a wavelength of 450 nm was determined. The concentration of a compound of Formula (I), required to inhibit binding by 50% was determined and reported as the IC50. The concentration required to inhibit binding by 90% was determined and reported as the IC90.

[2] = Pharmacokinetics of weight-based doses in AML subjects; type: in vivo, human; settings: for AUC, Mean / AUC, Median: dose 13 to dose 15; for Cmax: human, plasma, intravenous
Description: Three cohorts of 6-7 human subjects with acute myeloid leukemia (AML) each received a total of 15 infusions of 5, 10, or 20 mg/kg/dose over 8 days with a nominal infusion duration of 20 minutes. The first dose of a compound of Formula (I), was administered 24 hours±1 hour prior to the first dose of MEC (mitoxantrone, etoposide, and cytarabine) induction chemotherapy as a sentinel dose to evaluate the effect of the compound of Formula (I) alone, and then every 12 hours±1 hour on chemotherapy days, starting 2 hours prior to chemotherapy. […] MEC chemotherapy was administered on Days 2-6. Samples were obtained pre-dose, on Day 1, Day 3, Day 8, Day 9, and Day 10 (where Day 1 refers to the first day of dosing with a compound of Formula (I)).

[3] = tested on: relapsed/refractory (R/R) AML; assay: Exposure-response analysis for efficacy; type: in vivo, human; settings: 46 R/R AML subjects; 5, 10, 20 mg/kg BID with MEC
Description: To generate exposure metrics for the analyses in Example 14 and Example 15, a Pop-PK analysis, based on sampling of plasma concentrations (Cp) of the compound of Formula (I) during induction treatment, was conducted to identify an appropriate PK model, key covariates of the model, and to generate post hoc population PK metrics for all patients sampled for PK. The Pop-PK analysis comprised 59 subjects, 46 subjects diagnosed with relapsed/refractory (R/R) AML who were administered a compound of Formula (I) with MEC chemotherapy and 13 older subjects (aged 60 years or older) with newly diagnosed AML who were administered a compound of Formula (I) with 7+3 chemotherapy. Pop-PK modeling identified a three compartment model with renal function as the only significant covariate.
For Example 14, Exposure-Response (“E-R”) analysis evaluating efficacy measures against PK metrics was conducted using clinical response efficacy data from the 46 R/R AML subjects. R/R AML subjects were administered MEC chemotherapy and 5, 10, and 20 mg/kg of a compound of Formula (I) BID (i.e. 10, 20, and 40 mg/kg per day).
Exposure metrics were generated using the Pop-PK model described above.
Using clinical measures of efficacy described in Example 13 each subject was assigned to one of five clinical response categories: CR, CRi, MLFS, PD, and death. […]

[4] = Radiation induced mucositis assay; type: in vivo, Mice (C57bl/6); settings: 8.0 Gy whole body irradiation; 20 mg/kg IP BID 6 days
Description: Mice (C57bl/6) were subjected to whole body irradiation (8.0 Gy) and immediately afterwards treated with a compound of Formula (I) (20 mg/kg in saline, IP, BID (i.e. 40 mg/kg per day)) or saline alone (0.15 M NaCl) for 6 days. The small intestine was removed at day 6 and digested to release cells. The number of CD11b^+F4/80^+ macrophages from the small intestine was determined by flow cytometry (FIG. 2).

CC[C@@H]1CC(C(=O)NCCNC(=O)CCOCCOCCOCCOCCOCCOCCOCCOCCOCCOCCOCCOC)C[C@@H](O[C@@H]2O[C@@H](CO)[C@H](O)C(O[C@@H](CC3CCCCC3)C(=O)O)C2NC(C)=O)C1OC1O[C@@H](C)C(O)[C@H](O)[C@@H]1O (stereo partly shown) [compound of Formula (I)]
survival (U937; 40 mg/kg BID 9 days alone): does not extend survival beyond saline control | median survival time (MST) (U937; 40 mg/kg BID 9 days combined with cytarabine/DNR): greater than 120 days | animals surviving to the end of the study (U937; 40 mg/kg BID 9 days combined with cytarabine/DNR, n=10/group): five | gastrointestinal mucositis as measured by intestinal weight [1]: protects against chemotherapy induced gastrointestinal mucositis | intestinal erosion, villous loss, and macrophage infiltration [1]: ameliorated | IC50 (E-selectin): 2440 nM and 2400 nM | IC90 (E-selectin): 7535 ng/mL | IC90 (E-selectin; read-out: IC90): 7.54 µg/mL and 5.68 µM | AUC, Mean ([2]; 5 mg/kg/dose): 5.21 µg·days/mL | AUC, Median ([2]; 5 mg/kg/dose): 4.83 µg·days/mL | AUC, Mean ([2]; 10 mg/kg/dose): 9.63 µg·days/mL | AUC, Median ([2]; 10 mg/kg/dose): 9.63 µg·days/mL | AUC, Mean ([2]; 20 mg/kg/dose): 20.43 µg·days/mL | AUC, Median ([2]; 20 mg/kg/dose): 19.33 µg·days/mL | Cmax ([2]; 5 mg/kg, 5 mg/kg/dose, read-out: Cmax, Mean): 38.5 µg/mL | Cmax ([2]; 5 mg/kg, 5 mg/kg/dose, read-out: Cmax, Median): 36.3 µg/mL | Cmax ([2]; 10 mg/kg, 10 mg/kg/dose, read-out: Cmax, Mean): 79.6 µg/mL | Cmax ([2]; 10 mg/kg, 10 mg/kg/dose, read-out: Cmax, Median): 76.2 µg/mL | Cmax ([2]; 20 mg/kg, 20 mg/kg/dose, read-out: Cmax, Mean): 167 µg/mL | Cmax ([2]; 20 mg/kg, 20 mg/kg/dose, read-out: Cmax, Median): 153 µg/mL | exposure-response for remission (Fx > IC50, Fx > IC90, Cmax, AUC vs response category) [3]: significant overlap in all exposure-response metrics relating to remission for those subjects attaining CR and those with PD | CD11b+F4/80+ macrophages in small intestine [4]: decreased migration of inflammatory macrophages to the intestines
